{"source": "patent US20220408724A1", "about": "“METHOD FOR CONTROLLING METABOLISM OF BRANCHED FATTY ACID” (KAO CORPORATION, priority 2019, published 2022)", "format_in_all_cases": "cell-based", "key": {"Moraxella osloensis [1]": {"test_system": "Moraxella osloensis", "assay": "Examination example: suppression of metabolism of 14-methylhexadecanoic acid, components (a) and (b)/(b′)", "conditions": "for Metabolism of branched fatty acid: Residual amount (μg/fabric g): 14-methylhexadecanoic acid", "protocol": "The suppression of metabolism of 14-methylhexadecanoic acid by bacteria of the genus Moraxella and the suppression of a metabolite therefrom were tested in the following manner.\nMoraxella osloensis (strain isolated from clothing) was precultured on an SCD-LP agar medium (NIHON PHARMACEUTICAL CO., LTD.) at 37° C.; for 24 hours, and a bacterial suspension of 10^6 (CFU/ml) was prepared by using an NB liquid medium (Difco) diluted to 1/20 with ion exchange water.\nA methanol solution in which 14-methylhexadecanoic acid (SIGMA-ALDRICH) was dissolved was added dropwise to 3 cm×3 cm pieces of sterilized plain-weave cotton fabric to make it adhered to the fabric. The adhesion amount of 14-methylhexadecanoic acid was set to 10 μg per piece of the plain-weave cotton fabric (100 μg/fabric g). Further, a methanol solution in which component (a) was dissolved, and then, a methanol solution in which component (b) or (b′) was dissolved were added dropwise to the fabric to which 14-methylhexadecanoic acid adhered, and it was thereafter dried for an hour. This fabric was placed in a sterilized screw tube bottle No. 3 (Maruemu Corporation) and 100 μl of the bacterial suspension was inoculated thereto, and culture was carried out under 37° C.; conditions for 21 hours.\n3 ml of methanol was added to the screw tube bottle after culture, and extraction was carried out under ultrasonic irradiation for 30 minutes (20° C.). The extraction liquid was mixed with a (trimethylsilyl)diazomethane hexane solution (FUJIFILM Wako Pure Chemical Corporation) at 9:1 (volume ratio) and left overnight under room temperature and dark place conditions. After that, 14-methylhexadecanoic acid remaining on the fabric was quantified by GC. The quantification conditions for GC are as follows. • GC: Agilent 6890N • GC column: Agilent DB-1 30 m×250 μm×0.25 μm • Temperature rise condition: 50° C. (held for 3 minutes)-(10° C./min)-300° C. (held for 5 minutes) • Sample injection volume: 1 μl • Split ratio: 1:12 • Detector: FID\nThe residual amount of 14-methylhexadecanoic acid after culture on the fabric to which each metabolism controlling agent was added was quantified, and the ratio of the residual amount to that of 14-methylhexadecanoic acid in the case of adding no metabolism controlling agent (control) was calculated as a metabolism suppression rate (%). The higher a numerical value thereof is, the more the metabolism is suppressed. Note that the metabolism suppression rate was determined by the following formula:\nMetabolism suppression rate(%)=[1−(100−A)/(100−B)]×100 • A: residual amount of 14-methylhexadecanoic acid of reference or examination example (μg/fabric g) • B: residual amount of 14-methylhexadecanoic acid of control (μg/fabric g)\nA control is an example in which none of component (a), (b) or (b′) is added, and references 1-1, 2-1, 3-1 and 4-1 qualify as this (the same applies hereinafter). In these controls, the metabolism suppression rate is 0′."}, "Moraxella osloensis [2]": {"test_system": "Moraxella osloensis", "assay": "Examination example: measurement of viable bacterial count", "protocol": "After culture on fabric prepared in the same manner as in the above (1), 9 mL of an LP diluent (manufactured by NIHON PHARMACEUTICAL CO., LTD.) was added, and the extraction of the bacteria was carried out under ultrasound for 10 minutes. The extraction liquid was poured and mixed to an SCD-LP agar medium (NIHON PHARMACEUTICAL CO., LTD.), and culture was thereafter carried out at 37° C.; for a day. The number of colonies obtained on each piece of the fabric was counted, and a common logarithm value thereof was measured as the viable bacterial count. […] In addition, the […], the more the viable bacterial count of the microorganism is maintained."}, "Moraxella osloensis [3]": {"test_system": "Moraxella osloensis", "assay": "Examination example: suppression of metabolite 4-methyl-3-hexenoic acid, components (a) and (b)/(b′)", "protocol": "After culture on fabric prepared in the same manner as in the above (1), 3 ml of methanol was added, and extraction was carried out under ultrasonic irradiation for 30 minutes (20° C.). The extraction liquid was mixed with (a 1000 ppm methanol solution of) an ADAM reagent of Funakoshi Co., Ltd. at 1:1 (volume ratio) and left overnight under room temperature and dark place conditions. After that, 4-methyl-3-hexenoic acid as a metabolite from 14-methylhexadecanoic acid was quantified by HPLC. The quantification conditions are as follows.\nEluent: acetonitrile 61% (v/v), water 39% (v/v) Column temperature: 40° C. Sample injection volume: 10 μL Flow rate: 1.0 mL/min\nThe production amount of 4-methyl-3-hexenoic acid after culture on the fabric to which the metabolism controlling agent was added was quantified, and the ratio of the production amount to that of 4-methyl-3-hexenoic acid in the case of adding no metabolism controlling agent (control) was calculated as a metabolite suppression rate (%). The higher a numerical value thereof is, the more the metabolism is suppressed. Note that the metabolite suppression rate was determined by the following formula. In references 1-1, 2-1, 3-1 and 4-1, which are controls, the metabolite suppression rate is 0%.\nMetabolite suppression rate(%)=100×[(D−C)/D] • C: production amount of metabolite of reference or examination example (μg/fabric g) • D: production amount of metabolite of control (μg/fabric g)"}}, "data": [{"compound": "N#CC(C#N)=NNc1cccc(Cl)c1", "note": "[CCCP, carbonylcyanide-m-chlorophenylhydrazone]", "values": [{"measurement": "Metabolism of branched fatty acid: Residual amount (μg/fabric g)", "setting": "Moraxella osloensis [1]; single agent 2 μg/fabric g", "value": 44, "unit": "μg/fabric g"}, {"measurement": "Metabolism of branched fatty acid: Residual amount (μg/fabric g)", "setting": "Moraxella osloensis [1]; single agent 5 μg/fabric g", "value": 56, "unit": "μg/fabric g"}, {"measurement": "Metabolism of branched fatty acid: Metabolism suppression rate (%)", "setting": "Moraxella osloensis [1]; single agent 2 μg/fabric g", "value": 8, "unit": "%"}, {"measurement": "Metabolism of branched fatty acid: Metabolism suppression rate (%)", "setting": "Moraxella osloensis [1]; single agent 5 μg/fabric g", "value": 28, "unit": "%"}, {"measurement": "Viable bacterial count (Log (cfu/fabric cm^2))", "setting": "Moraxella osloensis [2]; single agent 2 μg/fabric g", "value": "6.1 Log (cfu/fabric cm^2)"}, {"measurement": "Viable bacterial count (Log (cfu/fabric cm^2))", "setting": "Moraxella osloensis [2]; single agent 5 μg/fabric g", "value": "5.5 Log (cfu/fabric cm^2)"}, {"measurement": "Product of metabolism of branched fatty acid: Metabolite suppression rate (%)", "setting": "Moraxella osloensis [3]; single agent 2 μg/fabric g", "value": 25, "unit": "%"}, {"measurement": "Product of metabolism of branched fatty acid: Production amount (μg/fabric g)", "setting": "Moraxella osloensis [3]; single agent 2 μg/fabric g", "value": 3.3, "unit": "μg/fabric g"}, {"measurement": "Product of metabolism of branched fatty acid: Metabolite suppression rate (%)", "setting": "Moraxella osloensis [3]; single agent 5 μg/fabric g", "value": 36, "unit": "%"}, {"measurement": "Product of metabolism of branched fatty acid: Production amount (μg/fabric g)", "setting": "Moraxella osloensis [3]; single agent 5 μg/fabric g", "value": 2.8, "unit": "μg/fabric g"}]}, {"compound": "C/C=C/C/C=C/CCC(=O)[C@H]1O[C@H]1C(N)=O", "note": "[Cerulenin, [2R,3S]-2,3-epoxy-4-oxo-7,10-trans,trans-dodecanoic acid amide]", "values": [{"measurement": "Metabolism of branched fatty acid: Residual amount (μg/fabric g)", "setting": "Moraxella osloensis [1]; single agent 5 μg/fabric g", "value": 39, "unit": "μg/fabric g"}, {"measurement": "Metabolism of branched fatty acid: Residual amount (μg/fabric g)", "setting": "Moraxella osloensis [1]; single agent 10 μg/fabric g", "value": 41, "unit": "μg/fabric g"}, {"measurement": "Metabolism of branched fatty acid: Residual amount (μg/fabric g)", "setting": "Moraxella osloensis [1]; single agent 20 μg/fabric g", "value": 48, "unit": "μg/fabric g"}, {"measurement": "Metabolism of branched fatty acid: Metabolism suppression rate (%)", "setting": "Moraxella osloensis [1]; single agent 5 μg/fabric g", "value": 0, "unit": "%"}, {"measurement": "Metabolism of branched fatty acid: Metabolism suppression rate (%)", "setting": "Moraxella osloensis [1]; single agent 10 μg/fabric g", "value": 3, "unit": "%"}, {"measurement": "Metabolism of branched fatty acid: Metabolism suppression rate (%)", "setting": "Moraxella osloensis [1]; single agent 20 μg/fabric g", "value": 15, "unit": "%"}, {"measurement": "Viable bacterial count (Log (cfu/fabric cm^2))", "setting": "Moraxella osloensis [2]; single agent 5 μg/fabric g", "value": "6.1 Log (cfu/fabric cm^2)"}, {"measurement": "Viable bacterial count (Log (cfu/fabric cm^2))", "setting": "Moraxella osloensis [2]; single agent 10 μg/fabric g", "value": "6.3 Log (cfu/fabric cm^2)"}, {"measurement": "Viable bacterial count (Log (cfu/fabric cm^2))", "setting": "Moraxella osloensis [2]; single agent 20 μg/fabric g", "value": "6.3 Log (cfu/fabric cm^2)"}, {"measurement": "Product of metabolism of branched fatty acid: Metabolite suppression rate (%)", "setting": "Moraxella osloensis [3]; single agent 5 μg/fabric g", "value": 2, "unit": "%"}, {"measurement": "Product of metabolism of branched fatty acid: Production amount (μg/fabric g)", "setting": "Moraxella osloensis [3]; single agent 5 μg/fabric g", "value": 4.3, "unit": "μg/fabric g"}, {"measurement": "Product of metabolism of branched fatty acid: Metabolite suppression rate (%)", "setting": "Moraxella osloensis [3]; single agent 10 μg/fabric g", "value": 9, "unit": "%"}, {"measurement": "Product of metabolism of branched fatty acid: Production amount (μg/fabric g)", "setting": "Moraxella osloensis [3]; single agent 10 μg/fabric g", "value": 4.0, "unit": "μg/fabric g"}, {"measurement": "Product of metabolism of branched fatty acid: Metabolite suppression rate (%)", "setting": "Moraxella osloensis [3]; single agent 20 μg/fabric g", "value": 11, "unit": "%"}, {"measurement": "Product of metabolism of branched fatty acid: Production amount (μg/fabric g)", "setting": "Moraxella osloensis [3]; single agent 20 μg/fabric g", "value": 3.9, "unit": "μg/fabric g"}]}]}
